According to patent US7858635B2 (priority 2005, dated 2010):
Read-outs that look alike come from different tables or passages of the source.

What was measured:
[1] = molecular target: T1, M1 muscarinic receptor (Homo sapiens, UniProt P11229); assay: Functional mobilization of intracellular calcium (FLIPR, Fluo-3), M1-CHO cells; format: cell-based; details: for Emax: 100% efficacy is the maximum response obtained with the Carbachol control, read-out: M1 Efficacy
T1 construct: expressed in transfected cells; host or cells: CHO cells (M1-CHO, under zeocin and G418 selection)
T1 sequence (P11229 1-460): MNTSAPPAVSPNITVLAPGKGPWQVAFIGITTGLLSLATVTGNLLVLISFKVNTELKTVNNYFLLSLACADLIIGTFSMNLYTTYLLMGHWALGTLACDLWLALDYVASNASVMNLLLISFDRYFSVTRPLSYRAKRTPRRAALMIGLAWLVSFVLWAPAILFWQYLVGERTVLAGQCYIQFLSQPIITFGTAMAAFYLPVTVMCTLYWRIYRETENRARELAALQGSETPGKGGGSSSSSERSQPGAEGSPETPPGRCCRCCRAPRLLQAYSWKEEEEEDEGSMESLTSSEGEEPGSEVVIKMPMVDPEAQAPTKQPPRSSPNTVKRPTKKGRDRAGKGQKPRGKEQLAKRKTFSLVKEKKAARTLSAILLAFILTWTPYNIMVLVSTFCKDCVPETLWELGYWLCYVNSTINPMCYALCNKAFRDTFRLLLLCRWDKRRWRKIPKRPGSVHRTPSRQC
How it was run: (§1)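 Intracellular calcium was tracked by fluorescence (488/540 nm) over 60 sec after compound addition to dye-loaded CHO cells expressing the receptor. Inhibitory activity used a 15 min pre-incubation before carbachol at the subtype EC80.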

[2] = molecular target: T2, M4 muscarinic receptor (Homo sapiens, UniProt P08173); assay: Functional mobilization of intracellular calcium (FLIPR, Fluo-3), M4-CHO cells; format: cell-based; details: for Emax: read-out: M4 Efficacy
T2 construct: expressed in transfected cells; host or cells: CHO cells (M4-CHO, under puromycin, zeocin and blasticidin selection)
T2 sequence (P08173 1-479): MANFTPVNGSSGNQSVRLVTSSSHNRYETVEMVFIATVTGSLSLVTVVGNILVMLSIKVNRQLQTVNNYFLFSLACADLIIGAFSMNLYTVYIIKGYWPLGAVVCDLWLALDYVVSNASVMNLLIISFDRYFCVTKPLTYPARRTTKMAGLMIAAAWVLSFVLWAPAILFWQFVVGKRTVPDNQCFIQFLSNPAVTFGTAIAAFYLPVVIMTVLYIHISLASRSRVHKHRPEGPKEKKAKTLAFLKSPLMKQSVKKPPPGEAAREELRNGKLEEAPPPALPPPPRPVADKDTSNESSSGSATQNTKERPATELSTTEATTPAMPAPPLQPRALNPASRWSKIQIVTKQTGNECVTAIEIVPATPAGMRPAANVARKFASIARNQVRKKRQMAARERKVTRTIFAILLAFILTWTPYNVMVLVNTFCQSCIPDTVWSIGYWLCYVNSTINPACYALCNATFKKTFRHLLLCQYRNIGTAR
How it was run: as §1

[3] = compound nos. 1-454, M1-CHO cells, calcium mobilization
[4] = compound nos. 1-454, 100% efficacy is the maximum response obtained with the Carbachol control
[5] = compound nos. 1-454, M4-CHO cells, calcium mobilization
[6] = compound nos. 455-509, 100% efficacy is the maximum response obtained with the Carbachol control

| Structure (SMILES) | Emax ([1]; compound nos. 1-454) [%] | M1 Activity [1, 3] | Emax [2, 4] [%] | M4 Activity [2, 5] | M1 Activity ([1]; compound nos. 1-454) | M4 Activity ([2]; compound nos. 1-454) | Emax ([1]; compound nos. 455-509) [%] | M1 Activity ([1]; compounds 455-509) | Emax [2, 6] [%] | M4 Activity ([2]; compounds 455-509) | M4 Efficacy [2, 4] |
| --- | --- | --- | --- | --- | --- | --- | --- | --- | --- | --- | --- |
| COC(=O)N1C2CCC1CC(N1CCC3(CC1)CN(C(=O)c1cc(C)n(C)n1)c1ccc(F)cc13)C2 (stereo not drawn) [compound 44] | 65 to 85 | +++ (activity was measured to be less than or equal to 0.7 μM) | > 70 | ++ (activity was measured to be between 0.1 μM and 4.0 μM) | – | – | – | – | – | – | – |
| CC(=O)NC1CC2(CCN(C[C@H]3C[C@H]4C=C[C@H]3C4)CC2)c2ccccc21 (stereo partly drawn) [compound 213] | 65 to 85 | ++ (activity was measured to be between 0.7 μM and 3.0 μM) | < 55 | + (activity was measured to be greater than or equal to 4.0 μM) | – | – | – | – | – | – | – |
| CN(C)C(=O)N1CC2(CCN(C3CCN(C(=O)OCCF)CC3)CC2)c2cc(F)ccc21 [compound 48] | > 85 | +++ (activity was measured to be less than or equal to 0.7 μM) | 55 to 70 | ++ (activity was measured to be between 0.1 μM and 4.0 μM) | – | – | – | – | – | – | – |
| CCOC(=O)C1CCC(N2CCC3(CC2)CN(C(C)=O)c2ccc(F)cc23)CC1 (stereo not drawn) [compound 228] | < 65 | + (activity was measured to be greater than or equal to 3.0 μM) | < 55 | + (activity was measured to be greater than or equal to 4.0 μM) | – | – | – | – | – | – | – |
| CCOC(=O)N1CCC(N2CCC3(CC2)CN(C(=O)OCC(C)(C)C)c2ccc(F)cc23)CC1 [compound 63] | < 65 | +++ (activity was measured to be less than or equal to 0.7 μM) | < 55 | + (activity was measured to be greater than or equal to 4.0 μM) | – | – | – | – | – | – | – |
| CCOC(=O)N1C2CCC1CC(N1CCC3(CC1)CNc1ccc(F)cc13)C2 (stereo not drawn) [compound 310] | < 65 | ++ (activity was measured to be between 0.7 μM and 3.0 μM) | < 55 | + (activity was measured to be greater than or equal to 4.0 μM) | – | – | – | – | – | – | – |
| CCOC(=O)N1CCC(N2CCC3(CC2)CN(C(C)=O)c2ccc(-c4ccoc4)cc23)CC1 [compound 128] | < 65 | +++ (activity was measured to be less than or equal to 0.7 μM) | < 55 | ++ (activity was measured to be between 0.1 μM and 4.0 μM) | – | – | – | – | – | – | – |
| Clc1ccc2c(c1)C1(CCN(CC3CCOCC3)CC1)CO2 [compound 415] | < 65 | – | < 55 | – | + (activity was measured to be greater than or equal to 3.0 μM) | + (activity was measured to be greater than or equal to 4.0 μM) | – | – | – | – | – |
| CCNC(=O)N1CC2(CCN(C3CC4CCC3C4)CC2)c2cc(C)ccc21 (stereo not drawn) [compound 400] | < 65 | – | < 55 | – | + (activity was measured to be greater than or equal to 3.0 μM) | + (activity was measured to be greater than or equal to 4.0 μM) | – | – | – | – | – |
| Cc1ccc2c(c1)C1(CCN(C3CC4CCC3C4)CC1)CN2C(=O)c1ccno1 (stereo not drawn) [compound 292] | 65 to 85 | ++ (activity was measured to be between 0.7 μM and 3.0 μM) | 55 to 70 | + (activity was measured to be greater than or equal to 4.0 μM) | – | – | – | – | – | – | – |
| CCc1cncc(N2CCC(N3CCC4(CC3)CN(C(C)=O)c3ccccc34)CC2)n1 [compound 485] | – | – | – | – | – | – | > 100 | +++ (activity was measured to be less than or equal to 2.0 μM) | 25 to 100 | ++ (activity was measured to be between 2.0 μM and 5.0 μM) | – |
| CCOC(=O)N1C2CCC1CC(N1CCC3(CC1)C(=O)N(C)c1ccccc13)C2 (stereo not drawn) [compound 149] | > 85 | +++ (activity was measured to be less than or equal to 0.7 μM) | > 70 | + (activity was measured to be greater than or equal to 4.0 μM) | – | – | – | – | – | – | – |
| CN(C)C(=O)N1CC2(CCN(C3CCN(c4nccs4)CC3)CC2)c2cc(F)ccc21 [compound 447] | 65 to 85 | – | 55 to 70 | – | +++ (activity was measured to be less than or equal to 0.7 μM) | +++ (activity was measured to be less than or equal to 0.1 μM) | – | – | – | – | – |
| CCOC(=O)N1CCC(N2CCC3(CC2)CN(C(=O)c2ccccc2OC)c2ccc(F)cc23)CC1 [compound 262] | < 65 | + (activity was measured to be greater than or equal to 3.0 μM) | < 55 | + (activity was measured to be greater than or equal to 4.0 μM) | – | – | – | – | – | – | – |
| COc1ccccc1N1CCC(N2CCC3(CC2)CN(C(=O)N(C)C)c2ccc(F)cc23)CC1 [compound 440] | 65 to 85 | – | 55 to 70 | – | ++ (activity was measured to be between 0.7 μM and 3.0 μM) | ++ (activity was measured to be between 0.1 μM and 4.0 μM) | – | – | – | – | – |
| Fc1ccc2c(c1)C1(CCN(CC3CCC4CCC3C4)CC1)CN2 (stereo not drawn) [compound 13] | 65 to 85 | ++ (activity was measured to be between 0.7 μM and 3.0 μM) | < 55 | + (activity was measured to be greater than or equal to 4.0 μM) | – | – | – | – | – | – | – |
| CC(=O)N[C@H]1CC2(CCN(C3CCC(C)CC3)CC2)c2ccccc21 (stereo partly drawn) [compound 280] | 65 to 85 | + (activity was measured to be greater than or equal to 3.0 μM) | 55 to 70 | + (activity was measured to be greater than or equal to 4.0 μM) | – | – | – | – | – | – | – |
| CC(=O)NC1CC2(CCN(C[C@H]3C[C@H]4C=C[C@H]3C4)CC2)c2ccccc21 (stereo partly drawn) [compound 392] | – | – | – | – | +++ (activity was measured to be less than or equal to 0.7 μM) | + (activity was measured to be greater than or equal to 4.0 μM) | – | – | – | – | + (efficacy was calculated to be 55% or less) |
| Cc1nsc(N2C3CCC2CC(N2CCC4(CC2)CN(C(=O)N(C)C)c2ccccc24)C3)n1 (stereo not drawn) [compound 493] | – | – | – | – | – | – | > 100 | +++ (activity was measured to be less than or equal to 2.0 μM) | 25 to 100 | ++ (activity was measured to be between 2.0 μM and 5.0 μM) | – |
| C#CCOC(=O)N1CCC(N2CCC3(CC2)CN(C(C)=O)c2ccc(C)cc23)CC1 [compound 81] | < 65 | ++ (activity was measured to be between 0.7 μM and 3.0 μM) | < 55 | + (activity was measured to be greater than or equal to 4.0 μM) | – | – | – | – | – | – | – |
| CCc1nsc(N2C3CCC2CC(N2CCC4(CCN(C(=O)N(C)C)c5ccccc54)CC2)C3)n1 (stereo not drawn) [compound 473] | – | – | – | – | – | – | > 100 | +++ (activity was measured to be less than or equal to 2.0 μM) | 25 to 100 | ++ (activity was measured to be between 2.0 μM and 5.0 μM) | – |
| CN(C)C(=O)N1CC2(CCN(C3CCN(c4cncnc4)CC3)CC2)c2cc(F)ccc21 [compound 446] | 65 to 85 | – | 55 to 70 | – | ++ (activity was measured to be between 0.7 μM and 3.0 μM) | +++ (activity was measured to be less than or equal to 0.1 μM) | – | – | – | – | – |
